# Patent US20230124862A1, “BISMUTH THIOL COMPOUNDS AND COMPOSITIONS AND METHODS OF TREATING MICROBIAL CO-INFECTIONS” (Microbion Corporation, priority 2020, published 2023)
# “And” between values parts separate entries of the source, which are not always exact repeats. Equal values may be shown once. Read-outs that look alike come from different tables or passages of the source.
# Assay type: in vivo, beagle dogs
# Method: Once adequately conditioned to the restraint device and face-masks, the animals are individually exposed to the test article aerosols. Animals receive a single face-mask inhalation exposure in a ramp study design to test article aerosols for up to 60 min. Animal observations during and post exposure determine the tolerance of inhaled BisEDT aerosols.
# Blood Collections and Bioanalytical Analysis: Blood are collected for pharmacokinetic (PK) analysis prior to exposure, then at 4 hr (±5 min) post exposure, and again on Day 1, Day 2, Day 7 (pre- and 4 hr (±5 min)-post exposure), Day 8, Day 9, Day 10, Day 11, Day 12, Day 13, and Day 14. A total of 0.25 mL is collected at each timepoint. No PK blood is collected from the vehicle control (Group 1) animals; only animals exposed to BisEDT have blood collected for PK analysis. Collected samples are flash frozen without processing for shipment to Medpace for bioanalytical analysis. Additional blood is collected from all animals in all groups for hematology (1 mL) and clinical chemistry (1 mL) at baseline, Day 7 (pre-exposure), and again at euthanasia. Blood (2-2 mL) is collected from all animals at necropsy for coagulation analysis (d-Dimer, fibrinogen, PT, and PTT).
# For clinical chemistry analyses, whole blood (1 mL) is placed into serum separator or clot tube and […] by centrifugation at a minimum of 1300 g at 2 to 8° C. for 10 (±1) min. Plasma samples are stored at −70 to −90° C. until analysis.
# Clinical chemistry samples are analyzed on a Hitachi Modular Analytics Clinical Chemistry System (Roche Diagnostics, Indianapolis, Ind.).
smiles,measurement,setting,value
"C1C[S][Bi]([S]CC[S][Bi]2[S]CC[S]2)[S]1 [BisEDT, Bismuth-1,2-ethanedithiol]",AGR,dog 2001 Male,1.9 and 2.0 and 1.8
same,ALB,dog 2001 Male,3.3 g/dL and 3.4 g/dL and 3.5 g/dL
same,ALPK,dog 2001 Male,130 IU/L and 140 IU/L and 128 IU/L
same,ALT,dog 2001 Male,22 IU/L
same,AST,dog 2001 Male,48 IU/L and 36 IU/L
same,BUN,dog 2001 Male,12 mg/dL and 16 mg/dL and 15 mg/dL
same,CA2,dog 2001 Male,10.9 mg/dL and 10.8 mg/dL and 11.0 mg/dL
same,CHOL,dog 2001 Male,168 mg/dL and 167 mg/dL and 152 mg/dL
same,CREA,dog 2001 Male,0.7 mg/dL and 0.6 mg/dL
same,Cl,dog 2001 Male,109 mmo/L and 113 mmo/L and 108 mmo/L
same,GGT,dog 2001 Male,3 IU/L
same,GLOB,dog 2001 Male,1.7 g/dL and 2.0 g/dL
same,GLUC,dog 2001 Male,91 mg/dL and 97 mg/dL and 102 mg/dL
same,K,dog 2001 Male,4.5 mmo/L and 4.9 mmo/L and 4.7 mmo/L
same,Na,dog 2001 Male,149 mmo/L and 147 mmo/L
same,TBIL,dog 2001 Male,0.15 mg/dL
same,TP,dog 2001 Male,5.0 g/dL and 5.1 g/dL and 5.5 g/dL
same,TRIG,dog 2001 Male,66 mg/dL and 80 mg/dL and 63 mg/dL
same,AGR,dog 2002 Female,1.7 and 2.3
same,ALB,dog 2002 Female,3.3 g/dL and 3.6 g/dL and 3.7 g/dL
same,ALT,dog 2002 Female,18 IU/L and 29 IU/L and 27 IU/L
same,AST,dog 2002 Female,35 IU/L and 41 IU/L and 38 IU/L
same,BUN,dog 2002 Female,13 mg/dL and 14 mg/dL
same,CA2,dog 2002 Female,10.9 mg/dL and 10.8 mg/dL and 10.6 mg/dL
same,CHOL,dog 2002 Female,138 mg/dL and 123 mg/dL and 114 mg/dL
same,CREA,dog 2002 Female,0.6 mg/dL
same,Cl,dog 2002 Female,110 mmo/L and 114 mmo/L and 113 mmo/L
same,GGT,dog 2002 Female,3 IU/L
same,GLOB,dog 2002 Female,1.9 g/dL and 1.6 g/dL
same,GLUC,dog 2002 Female,95 mg/dL and 98 mg/dL and 89 mg/dL
same,K,dog 2002 Female,5.0 mmo/L and 5.2 mmo/L and 4.6 mmo/L
same,Na,dog 2002 Female,149 mmo/L and 147 mmo/L and 148 mmo/L
same,TBIL,dog 2002 Female,0.15 mg/dL
same,TP,dog 2002 Female,5.2 g/dL and 5.3 g/dL
same,TRIG,dog 2002 Female,38 mg/dL and 39 mg/dL and 31 mg/dL
same,AGR,dog 3001 Male,2.0 and 2.1
same,ALB,dog 3001 Male,3.2 g/dL and 3.4 g/dL
same,ALPK,dog 3001 Male,142 IU/L and 135 IU/L and 121 IU/L
same,ALT,dog 3001 Male,26 IU/L and 24 IU/L and 22 IU/L
same,AST,dog 3001 Male,30 IU/L and 32 IU/L and 33 IU/L
same,CA2,dog 3001 Male,10.7 mg/dL and 10.5 mg/dL and 10.0 mg/dL
same,CHOL,dog 3001 Male,100 mg/dL and 111 mg/dL
same,CREA,dog 3001 Male,0.6 mg/dL and 0.7 mg/dL and 1.0 mg/dL
same,Cl,dog 3001 Male,111 mmo/L and 110 mmo/L and 109 mmo/L
same,GGT,dog 3001 Male,3 IU/L
same,GLOB,dog 3001 Male,1.6 g/dL and 1.7 g/dL
same,GLUC,dog 3001 Male,100 mg/dL and 88 mg/dL and 51 mg/dL
same,K,dog 3001 Male,4.7 mmo/L and 5.1 mmo/L and 5.8 mmo/L
same,Na,dog 3001 Male,146 mmo/L and 148 mmo/L
same,TBIL,dog 3001 Male,0.15 mg/dL
same,TP,dog 3001 Male,4.8 g/dL and 5.1 g/dL and 5.0 g/dL
same,TRIG,dog 3001 Male,26 mg/dL and 34 mg/dL and 52 mg/dL
same,AGR,dog 3002 Female,2.3 and 1.8 and 2.6
same,ALB,dog 3002 Female,3.5 g/dL and 3.7 g/dL
same,ALPK,dog 3002 Female,164 IU/L and 90 IU/L and 176 IU/L
same,ALT,dog 3002 Female,28 IU/L and 20 IU/L
same,AST,dog 3002 Female,36 IU/L and 28 IU/L and 30 IU/L
same,CA2,dog 3002 Female,11.2 mg/dL and 10.8 mg/dL and 10.4 mg/dL
same,CHOL,dog 3002 Female,126 mg/dL and 175 mg/dL and 141 mg/dL
same,CREA,dog 3002 Female,0.6 mg/dL and 0.5 mg/dL and 0.9 mg/dL
same,Cl,dog 3002 Female,112 mmo/L and 109 mmo/L and 110 mmo/L
same,GGT,dog 3002 Female,3 IU/L
same,GLOB,dog 3002 Female,1.5 g/dL and 2.0 g/dL and 1.4 g/dL
same,GLUC,dog 3002 Female,112 mg/dL and 90 mg/dL and 65 mg/dL
same,K,dog 3002 Female,5.5 mmo/L and 5.3 mmo/L and 5.9 mmo/L
same,Na,dog 3002 Female,149 mmo/L and 145 mmo/L
same,TBIL,dog 3002 Female,0.15 mg/dL
same,TP,dog 3002 Female,5.0 g/dL and 5.5 g/dL and 5.1 g/dL
same,TRIG,dog 3002 Female,34 mg/dL and 43 mg/dL and 58 mg/dL
same,AGR,dog 4001 Male,2.3 and 1.8 and 1.9
same,ALB,dog 4001 Male,3.6 g/dL and 3.4 g/dL and 3.2 g/dL
same,ALPK,dog 4001 Male,103 IU/L and 114 IU/L and 119 IU/L
same,ALT,dog 4001 Male,27 IU/L and 28 IU/L
same,AST,dog 4001 Male,32 IU/L and 39 IU/L and 34 IU/L
same,BUN,dog 4001 Male,11 mg/dL and 12 mg/dL
same,CA2,dog 4001 Male,10.8 mg/dL and 10.6 mg/dL and 10.4 mg/dL
same,CHOL,dog 4001 Male,153 mg/dL and 147 mg/dL and 111 mg/dL
same,CREA,dog 4001 Male,0.7 mg/dL and 0.6 mg/dL
same,Cl,dog 4001 Male,120 mmo/L and 116 mmo/L and 113 mmo/L
same,GGT,dog 4001 Male,3 IU/L
same,GLOB,dog 4001 Male,1.6 g/dL and 1.9 g/dL and 1.7 g/dL
same,GLUC,dog 4001 Male,102 mg/dL and 82 mg/dL and 86 mg/dL
same,K,dog 4001 Male,4.7 mmo/L and 4.8 mmo/L
same,Na,dog 4001 Male,152 mmo/L and 147 mmo/L and 145 mmo/L
same,TBIL,dog 4001 Male,0.15 mg/dL
same,TP,dog 4001 Male,5.2 g/dL and 5.3 g/dL and 4.9 g/dL
same,TRIG,dog 4001 Male,49 mg/dL and 46 mg/dL and 40 mg/dL
same,AGR,dog 4002 Female,1.7 and 1.8
same,ALB,dog 4002 Female,3.5 g/dL
same,ALPK,dog 4002 Female,147 IU/L and 103 IU/L
same,ALT,dog 4002 Female,20 IU/L and 21 IU/L
same,AST,dog 4002 Female,32 IU/L and 35 IU/L
same,BUN,dog 4002 Female,13 mg/dL and 12 mg/dL
same,CA2,dog 4002 Female,11.1 mg/dL and 11.2 mg/dL
same,CHOL,dog 4002 Female,182 mg/dL and 169 mg/dL
same,CREA,dog 4002 Female,0.6 mg/dL and 0.5 mg/dL
same,Cl,dog 4002 Female,116 mmo/L and 112 mmo/L
